{"source": "patent US11219221B2", "about": "(FarmHannong Co., Ltd., priority 2017, dated 2022)", "assay_type_in_all_cases": "cell-based", "details_in_all_cases": "LB agar, 37° C., light, 16 to 20 hours", "key": {"[1]": {"test_system": "CyPPO17 (SEQ ID NO: 3) variant F359L in PPO-deficient E. coli BT3(ΔPPO)", "procedure": "(§1) The mutated CyPPO gene obtained from the Example 2 was transformed to BT3 (ΔPPO) strain which is deficient of PPO activity and cultured in LB media with PPO-inhibiting herbicide, thereby examining whether growth of transformed BT3 was not inhibited.\n(§2) BT3 competent cells were transformed with the pET303-CyPPO16 and pET303-CyPPO17 plasmids and those with a mutation(s) constructed in Example 2 respectively, and were cultured in LB agar media containing carbenicillin (Gold Biotechnology, Co., Ltd.).\n(§3) Single colony of E. coli transformed with each CyPPO gene was cultured in 3 ml of LB broth containing carbenicillin overnight, and then was subcultured until absorbance (0D600) reached 0.5 to 1. Then, it was diluted with LB broth to OD600=0.5. Again, the diluted solution was serially diluted 4 times by a factor of one tenth.\n(§4) The LB agar media (LB 25 g/l, Bacto agar 15 g/l) containing carbenicillin (100 μg/ml) and 0 to 4,000 μM of various herbicides dissolved in DMSO was prepared. Next, 10 μl of each diluted solution was dropped on the plate and cultured at 37° C. under light (Tables 7 and 9, FIGS. 2 to 6, and 18 to 22) or dark (Tables 8 and 10, FIGS. 7 to 17, and 23 to 33) for 16 to 20 hours. Then, extent of tolerance was evaluated.\n(§5) The extent of herbicide tolerance of the mutated genes was evaluated by comparing that of mutated genes with that of wild type. The relative tolerance was represented with “+” as a factor of 10 times.\n(§6) In Tables 7 to 10, tolerance level was presented as of tolerance of wild type and of variants equivalent to that of wild type, and was done as ‘+’ per each 10 fold resistance until ‘+++++’ as maximal resistance."}, "[2]": {"test_system": "CyPPO16 (SEQ ID NO: 1) variant F360M in PPO-deficient E. coli BT3(ΔPPO)", "procedure": "as §1, §2, §3, §4, §5, §6"}, "[3]": {"test_system": "CyPPO16 (SEQ ID NO: 1) variant F360L in PPO-deficient E. coli BT3(ΔPPO)", "procedure": "as §1, §2, §3, §4, §5, §6"}, "[4]": {"test_system": "CyPPO17 (SEQ ID NO: 3) variant V304L in PPO-deficient E. coli BT3(ΔPPO)", "procedure": "as §1, §2, §3, §4, §5, §6"}, "[5]": {"test_system": "CyPPO17 (SEQ ID NO: 3) variant A166L in PPO-deficient E. coli BT3(ΔPPO)", "procedure": "as §1, §2, §3, §4, §5, §6"}, "[6]": {"test_system": "CyPPO17 (SEQ ID NO: 3) variant F359M in PPO-deficient E. coli BT3(ΔPPO)", "procedure": "as §1, §2, §3, §4, §5, §6"}, "[7]": {"test_system": "CyPPO17 (SEQ ID NO: 3) variant F359I in PPO-deficient E. coli BT3(ΔPPO)", "procedure": "as §1, §2, §3, §4, §5, §6"}, "[8]": {"test_system": "CyPPO17 (SEQ ID NO: 3) variant F359C in PPO-deficient E. coli BT3(ΔPPO)", "procedure": "as §1, §2, §3, §4, §5, §6"}, "[9]": {"test_system": "CyPPO16 (SEQ ID NO: 1) variant A162L in PPO-deficient E. coli BT3(ΔPPO)", "procedure": "as §1, §2, §3, §4, §5, §6"}, "[10]": {"test_system": "CyPPO16 (SEQ ID NO: 1) variant V305M in PPO-deficient E. coli BT3(ΔPPO)", "procedure": "as §1, §2, §3, §4, §5, §6"}, "[11]": {"test_system": "CyPPO16 (SEQ ID NO: 1) variant F360I in PPO-deficient E. coli BT3(ΔPPO)", "procedure": "as §1, §2, §3, §4, §5, §6"}, "[12]": {"test_system": "CyPPO17 (SEQ ID NO: 3) variant V304M in PPO-deficient E. coli BT3(ΔPPO)", "procedure": "as §1, §2, §3, §4, §5, §6"}, "[13]": {"test_system": "CyPPO17 (SEQ ID NO: 3) variant A166C in PPO-deficient E. coli BT3(ΔPPO)", "procedure": "as §1, §2, §3, §4, §5, §6"}, "[14]": {"test_system": "CyPPO16 (SEQ ID NO: 1) variant F360V in PPO-deficient E. coli BT3(ΔPPO)", "procedure": "as §1, §2, §3, §4, §5, §6"}, "[15]": {"test_system": "CyPPO16 (SEQ ID NO: 1) variant F360C in PPO-deficient E. coli BT3(ΔPPO)", "procedure": "as §1, §2, §3, §4, §5, §6"}, "[16]": {"test_system": "CyPPO16 (SEQ ID NO: 1) variant A162C in PPO-deficient E. coli BT3(ΔPPO)", "procedure": "as §1, §2, §3, §4, §5, §6"}, "[17]": {"test_system": "CyPPO16 wild type (SEQ ID NO: 1) in PPO-deficient E. coli BT3(ΔPPO)", "procedure": "as §1, §2, §3, §4\n(§7) The extent of herbicide tolerance of the mutated genes was evaluated by comparing that of mutated genes with that of wild type. The relative tolerance was represented with “+” as a factor of 10 times. Evaluation result was listed in Tables 7 to10 and FIGS. 2 to 33:\n(§8) In Tables 7 to 10, tolerance level was presented as of tolerance of wild type and of variants equivalent to that of wild type, and was done as ‘+’ per each 10 fold resistance until ‘+++++’ as maximal resistance. (Tolerance level was evaluated by relative growth level of variants to that of wild type in the media containing highest concentration of herbicide; ‘+’=1-9 fold higher tolerance, ‘++’=10-99 fold higher tolerance, ‘+++’=100-999 fold higher tolerance, ‘++++’=1,000-9,999 fold higher tolerance, ‘+++++’=more than 10,000 fold higher tolerance)"}, "[18]": {"test_system": "CyPPO17 wild type (SEQ ID NO: 3) in PPO-deficient E. coli BT3(ΔPPO)", "procedure": "as §1, §2, §3, §4, §7, §8"}}, "data": [{"molecule": "CC(C)N(C)S(=O)(=O)NC(=O)c1cc(-n2c(=O)cc(C(F)(F)F)n(C)c2=O)c(F)cc1Cl", "note": "[saflufenacil]", "values": [{"measurement": "Herbicide tolerance (relative to wild type)", "setting": "[1]", "value": "+++ (100-999 fold higher tolerance)"}, {"measurement": "Herbicide tolerance (relative to wild type)", "setting": "[2]", "value": "+++ (100-999 fold higher tolerance)"}, {"measurement": "Herbicide tolerance (relative to wild type)", "setting": "[3]", "value": "+++ (100-999 fold higher tolerance)"}, {"measurement": "Herbicide tolerance (relative to wild type)", "setting": "[4]", "value": "+ (1-9 fold higher tolerance)"}, {"measurement": "Herbicide tolerance (relative to wild type)", "setting": "[5]", "value": "+++ (100-999 fold higher tolerance)"}, {"measurement": "Herbicide tolerance (relative to wild type)", "setting": "[6]", "value": "+++ (100-999 fold higher tolerance)"}, {"measurement": "Herbicide tolerance (relative to wild type)", "setting": "[7]", "value": "+++ (100-999 fold higher tolerance)"}, {"measurement": "Herbicide tolerance (relative to wild type)", "setting": "[8]", "value": "+++ (100-999 fold higher tolerance)"}, {"measurement": "Herbicide tolerance (relative to wild type)", "setting": "[9]", "value": "+++ (100-999 fold higher tolerance)"}, {"measurement": "Herbicide tolerance (relative to wild type)", "setting": "[10]", "value": "+++ (100-999 fold higher tolerance)"}, {"measurement": "Herbicide tolerance (relative to wild type)", "setting": "[11]", "value": "+++ (100-999 fold higher tolerance)"}, {"measurement": "Herbicide tolerance (relative to wild type)", "setting": "[12]", "value": "+++ (100-999 fold higher tolerance)"}, {"measurement": "Herbicide tolerance (relative to wild type)", "setting": "[13]", "value": "+++ (100-999 fold higher tolerance)"}, {"measurement": "Herbicide tolerance (relative to wild type)", "setting": "[14]", "value": "+++ (100-999 fold higher tolerance)"}, {"measurement": "Herbicide tolerance (relative to wild type)", "setting": "[15]", "value": "+++ (100-999 fold higher tolerance)"}, {"measurement": "Herbicide tolerance (relative to wild type)", "setting": "[16]", "value": "+++ (100-999 fold higher tolerance)"}, {"measurement": "Herbicide tolerance (relative to wild type)", "setting": "[17]", "value": "−"}, {"measurement": "Herbicide tolerance (relative to wild type)", "setting": "[18]", "value": "−"}]}]}
